Legend:
[1] = test system: mutant Mortierella alpina SAM 1860; assay: Culturing of mutant Mortierella alpina SAM 1860 in medium with added substrate (Example 3), fatty acid methyl esters analysed by gas chromatography; format: cell-based; conditions: 0.5% additive in medium with 2% glucose, 1% yeast extract, 0.2% Tween 20; 28° C., 7 days
Experimental: These cells were extracted with a solvent of one phase chloroform/methanol/water according to Bligh & Dyer extraction method to obtain total lipids in an amount of 505 mg from the strain IFO 8568, and an amount of 530 mg from the mutant SAM 1860. These lipids were subjected to methyl-esterification using anhydrous methanol/hydrochloric acid (95:5) at 50° C. for 3 hours, and the resulting fatty acid methyl esters were extracted to obtain 417 mg of a total fatty acid methyl ester preparation from the strain IFO 8568, and 454 mg of a total fatty acid preparation from the mutant SAM 1860. The fatty acid methyl ester preparations were analyzed by gas chromatography.
20 ml of a medium (pH 6.0) containing 2% glucose; 1% yeast extract; 0.2% Tween 20; and 0.5% hydrocarbon, sodium salt of fatty acid, fatty acid ester, or fat or oil, was put into a 100 ml Erlenmeyer flask, and autoclaved at 120° C. for 20 minutes.
A mutant Mortierella alpina SAM 1860 was added to each flask, and cultured on a reciprocating shaker (110 rpm) at 28° C. for 7 days. For the resulting cell preparations, fatty acid methyl esters were analyzed by gas chromatography as described in Example 1.

[2] = test system: Mortierella alpina IFO 8568; assay: Culturing of Mortierella alpina IFO 8568 with sesamin-containing soybean oil (Example 5, Comparative Example); format: cell-based; conditions: strain IFO 8568; soybean oil with 15% by weight sesamin, 0.5 ml at start and after 24 hours per 100 ml; 28° C., 7 days
Experimental: (§1) 100 ml each of a medium (pH 6.0) containing 4% glucose and 1% yeast extract was put into 4 Erlenmeyer flasks having a volume of 500 ml, and 0.5 ml each of soybean oil in which sesamin (2,6-bis-(3,4-methylenedioxyphenyl)-cis-3,7-dioxabicyclo[3,3,0]octane) had been dissolved to a sesamin concentration of 15% by weight was added to 2 flasks, and 0.5 ml each of soybean oil was added 2 other flasks, and the flasks were sterilized at 120° C. for 20 minutes.
(§2) Mortierella alpina IFO 8568 (Comparative Example) was added to two different media, and the mutant SAM 1860 (Example) was add to other different media.
(§3) The strains were cultured on a reciprocating shaker (110 rpm) at 28° C. for 7 days. After 24 hours from the start of culturing, 0.5 ml each of the sesamin-containing soybean oil was added to the media to which the sesamin-containing soybean oil had been added, and 0.5 ml each of soybean oil was added to the media to which soybean oil had been added. After culturing, a fatty acid methyl ester preparation was analyzed by gas chromatography as described in Example 1.

mutant SAM 1860 = assay: Culturing of mutant SAM 1860 with sesamin-containing soybean oil (Example 5); format: cell-based, Mortierella alpina
Experimental: as §1, §2, §3

[3] = Example 5 cultures (Table 4), strain not specified

| SMILES | ARA [1] [g/L] | DGLA [1] [g/L] | Dry cells [1] [g/L] | Ratio of DGLA:ARA [2] | effect of addition on the amount of dry cells (mutant SAM 1860; [3]) | effect of addition on the amount of total fatty acids produced (mutant SAM 1860; [3]) | Ratio of DGLA:ARA (mutant SAM 1860; mutant SAM 1860, soybean oil with 15% by weight sesamin, 0.5 ml at start and after 24 hours per 100 ml, 28° C., 7 days) |
| --- | --- | --- | --- | --- | --- | --- | --- |
| CCCCCCCCCCCCCCCC [Hexadecane] | 0.55 | 1.89 | 18.1 |  |  |  |  |
| CCCCC/C=C\C/C=C\CCCCCCCC(=O)OC [Methyl linoleate] | 0.60 | 2.15 | 18.7 |  |  |  |  |
| CCCCCCCC/C=C\CCCCCCCC(=O)OC [Methyl oleate] | 0.56 | 1.99 | 18.1 |  |  |  |  |
| CCCCCCCCCCCCCCCCCC [Octadecane] | 0.50 | 1.80 | 18.3 |  |  |  |  |
| CCCCC/C=C\C/C=C\CCCCCCCC(=O)[O-].[Na+] [Sodium linoleate] | 0.49 | 1.40 | 14.8 |  |  |  |  |
| CCCCCCCC/C=C\CCCCCCCC(=O)[O-].[Na+] [Sodium oleate] | 0.48 | 1.40 | 15.5 |  |  |  |  |
| c1cc2c(cc1[C@H]1OC[C@H]3[C@@H]1CO[C@@H]3c1ccc3c(c1)OCO3)OCO2 [sesamin, 2,6-bis-(3,4-methylenedioxyphenyl)-cis-3,7-dioxabicyclo[3,3,0]octane] |  |  |  | ≤ 1.17 | did not effect | did not effect | 12.3 |

Reference: patent publication US6602690B2, “Process for production of dihomo-γ-linolenic acid and lipid containing same” (Suntory, Ltd., priority 1991, dated 2003)
